In patent publication US20250115597A1, “TYK2 INHIBITORS AND COMPOSITIONS AND METHODS THEREOF” (LYNK PHARMACEUTICALS CO. LTD., priority 2021, published 2025):
Read-outs that look alike come from different tables or passages of the source.

Legend:
[1] = target: T1, Ba/F3-TEL-TYK2 cells (Homo sapiens, UniProt P29597); assay: Anti-proliferative assay, Ba/F3-TEL-TYK2 cells (Cell-Titer Glo); type: cell-based; conditions: 72 h, read-out: BaF3-TEL-TYK2 IC50
T1 construct: fused on or other part: Dimerization domain of TEL (ETV6) fused to the TYK2 kinase domain; P41212 (Transcription factor ETV6)
T1 sequence (P29597 whole entry, change not shown, the tested form may be a part): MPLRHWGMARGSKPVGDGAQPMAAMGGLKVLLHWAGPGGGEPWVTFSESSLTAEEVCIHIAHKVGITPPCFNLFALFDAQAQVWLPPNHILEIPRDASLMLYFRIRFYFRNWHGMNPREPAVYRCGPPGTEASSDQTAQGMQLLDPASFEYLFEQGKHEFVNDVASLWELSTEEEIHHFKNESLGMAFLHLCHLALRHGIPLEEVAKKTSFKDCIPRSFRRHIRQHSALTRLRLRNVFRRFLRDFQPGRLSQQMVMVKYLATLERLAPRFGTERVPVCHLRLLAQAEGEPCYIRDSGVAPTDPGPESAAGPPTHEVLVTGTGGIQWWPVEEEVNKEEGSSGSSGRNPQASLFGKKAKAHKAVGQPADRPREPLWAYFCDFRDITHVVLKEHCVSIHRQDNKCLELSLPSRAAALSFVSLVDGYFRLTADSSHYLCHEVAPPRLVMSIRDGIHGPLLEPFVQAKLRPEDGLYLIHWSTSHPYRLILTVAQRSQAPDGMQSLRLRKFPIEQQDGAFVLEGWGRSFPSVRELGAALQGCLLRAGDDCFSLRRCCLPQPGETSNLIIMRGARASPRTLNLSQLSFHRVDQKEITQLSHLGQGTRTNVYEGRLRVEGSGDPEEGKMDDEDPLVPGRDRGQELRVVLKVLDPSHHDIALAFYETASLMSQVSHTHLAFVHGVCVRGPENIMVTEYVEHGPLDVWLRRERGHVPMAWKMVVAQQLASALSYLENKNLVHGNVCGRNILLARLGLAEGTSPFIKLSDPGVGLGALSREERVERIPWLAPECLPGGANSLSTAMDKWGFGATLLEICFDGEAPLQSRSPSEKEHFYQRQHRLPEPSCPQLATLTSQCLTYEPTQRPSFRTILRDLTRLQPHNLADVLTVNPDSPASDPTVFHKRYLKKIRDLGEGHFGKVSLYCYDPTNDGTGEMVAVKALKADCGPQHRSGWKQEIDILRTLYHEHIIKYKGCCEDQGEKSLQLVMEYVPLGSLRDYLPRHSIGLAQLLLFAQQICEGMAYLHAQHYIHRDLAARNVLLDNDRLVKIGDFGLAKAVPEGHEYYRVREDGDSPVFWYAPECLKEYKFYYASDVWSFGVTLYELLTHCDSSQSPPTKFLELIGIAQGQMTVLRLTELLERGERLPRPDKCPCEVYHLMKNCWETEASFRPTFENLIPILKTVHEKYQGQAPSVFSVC
Protocol: Anti-Proliferative Assay Dimerization domain of Tel protein fused with JAK kinase domain was permanently transduced into Ba/F3 cells, whose proliferation is dependent on JAK activity in the absence of IL-3 induction. These engineered Ba/F3 cells (Ba/F3-FL-TYK2-[…], Ba/F3-TEL-TYK2 and Ba/F3-TEL-JAK2) were used to monitor JAK inhibitory activities of the compounds in the cellular. […] Cells were seeded at 2000/well of white flat bottom 96-well plates. The well containing medium only was used as background control. After 24 h growth, cells were treated with compounds. The test compounds were dissolved in DMSO to a stock concentration of 20 mM. 3-fold serially diluted compounds for 9 concentrations with top concentration of 20 μM was added into the each well. […] The cells continued to grow at 37° C. in 5% CO2 for 72 h after compound treatment. The viability was measured by cellular ATP determination using the Cell-Titer Glo luciferase reagent (Promega). The Luminescence value was recorded by a multi-label reader Envision (PerkinElmer).

[2] = target: T2, Ba/F3-FL-TYK2-P760L cells (Homo sapiens, UniProt P29597, P760L, cells depend on it); assay: Anti-proliferative assay, Ba/F3-FL-TYK2-P760L cells (Cell-Titer Glo); type: cell-based; conditions: 72 h, read-out: BaF3-FL-T2P760L IC50
T2 construct: BaF3-FL-T2P760L (nM)
T2 sequence (P29597 whole entry P760L): as the sequence (P29597 whole entry, change not shown, the tested form may be a part) above, with P760L counted along it
Procedure, shortened: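 Compound exposure ran 72 h at 37 °C in 5% CO2 across nine 3-fold concentrations from a 20 μM top dose, added 24 h after seeding 2000 cells/well.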

[3] = target: T3, TYK2-JH2 domain (Homo sapiens, UniProt P29597); assay: Binding activity test for JH2 domain of TYK2 (Tb-antibody/tracer FRET)
T3 construct: IC50 on JH2 domain activity (nM)
T3 sequence (P29597 589-875 limits assumed): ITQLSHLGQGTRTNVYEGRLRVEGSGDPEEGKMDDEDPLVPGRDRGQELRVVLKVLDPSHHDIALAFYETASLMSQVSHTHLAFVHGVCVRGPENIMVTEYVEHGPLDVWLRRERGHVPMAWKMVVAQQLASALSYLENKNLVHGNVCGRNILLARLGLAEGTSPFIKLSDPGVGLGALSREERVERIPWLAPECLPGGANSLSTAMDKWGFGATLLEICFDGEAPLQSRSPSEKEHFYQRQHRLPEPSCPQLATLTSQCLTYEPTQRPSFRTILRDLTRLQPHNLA
Procedure, shortened: (§1)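 FRET read-out after 60 min at 25° C plus overnight at 4° C; tracer displacement detected via Tb-labelled antibody on the JH2 domain. Dose-response used 11 points at 3-fold dilution.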

[4] = Microsomal metabolic stability assay; type: in vitro ADME; conditions: pH 7.4, 0.5 mg/mL protein, 1 μM compound
Procedure, shortened: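 Parent loss was tracked by LC/MS/MS at 0, 5, 15, 30 and 45 min, with half-life derived from the ln(% remaining)–time slope. Incubation at 37 °C, pH 7.4 phosphate/EDTA buffer: 0.5 mg/mL microsomes, 1 μM compound, NADPH-regenerated (2 mM).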

[5] = target: T4, JAK2 (Homo sapiens, UniProt O60674); assay: JAK2 kinase activity, microfluidic assay (Caliper EZ Reader II); type: biochemical; conditions: JAK2 0.125 nM, 1 mM ATP
T4 construct: purchased Carna Biosciences
T4 sequence (O60674 whole entry): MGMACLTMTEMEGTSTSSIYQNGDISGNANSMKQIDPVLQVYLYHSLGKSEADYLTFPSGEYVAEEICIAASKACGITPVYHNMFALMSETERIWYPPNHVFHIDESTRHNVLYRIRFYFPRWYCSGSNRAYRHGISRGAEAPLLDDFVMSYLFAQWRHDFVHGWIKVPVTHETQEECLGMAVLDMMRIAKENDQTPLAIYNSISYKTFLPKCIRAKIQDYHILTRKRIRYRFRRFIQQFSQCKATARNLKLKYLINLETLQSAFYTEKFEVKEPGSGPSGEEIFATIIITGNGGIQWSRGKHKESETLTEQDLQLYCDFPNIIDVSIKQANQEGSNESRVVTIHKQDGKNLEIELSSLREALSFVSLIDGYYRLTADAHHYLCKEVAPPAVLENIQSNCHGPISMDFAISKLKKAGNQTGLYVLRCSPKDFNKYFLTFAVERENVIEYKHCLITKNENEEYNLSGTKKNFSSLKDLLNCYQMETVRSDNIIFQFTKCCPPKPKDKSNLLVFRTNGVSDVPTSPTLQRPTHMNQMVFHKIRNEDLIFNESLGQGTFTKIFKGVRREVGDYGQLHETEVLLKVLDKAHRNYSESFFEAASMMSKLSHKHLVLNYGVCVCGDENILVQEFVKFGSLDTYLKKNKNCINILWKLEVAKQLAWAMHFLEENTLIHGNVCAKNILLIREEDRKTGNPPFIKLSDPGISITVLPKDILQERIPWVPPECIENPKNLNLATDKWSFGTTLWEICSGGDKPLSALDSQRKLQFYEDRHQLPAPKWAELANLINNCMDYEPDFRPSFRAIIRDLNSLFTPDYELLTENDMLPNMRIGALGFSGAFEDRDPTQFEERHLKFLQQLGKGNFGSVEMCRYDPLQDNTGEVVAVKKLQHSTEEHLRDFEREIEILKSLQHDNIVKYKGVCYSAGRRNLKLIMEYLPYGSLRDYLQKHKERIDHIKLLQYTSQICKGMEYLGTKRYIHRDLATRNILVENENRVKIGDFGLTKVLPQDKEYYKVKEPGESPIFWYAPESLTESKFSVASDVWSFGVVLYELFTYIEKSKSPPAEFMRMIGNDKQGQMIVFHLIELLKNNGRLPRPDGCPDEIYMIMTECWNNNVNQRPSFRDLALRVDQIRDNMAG
Protocol: (§2) Testing for JAK1, JAK2 and TYK2 Kinase Activities
(§3) JAK activity was determined in the reaction buffer 50 mM HEPES, 0.01% Brij35, 10 mM MgCl2, 2 mM DTT by a microfluidic assay. The phosphorylation of a FAM labeled peptide substrate was monitored in the Caliper EZ Reader II (Perkin Elmer). The assay condition for each batch of enzyme (Carna Biosciences) was optimized to obtain 10% conversion rate of peptide substrate.
(§4) The test compounds were dissolved in DMSO to a stock concentration of 10 mM. Three-fold serially diluted compounds with top concentration of 5 μM were pre-incubated with JAK1, JAK2 or TYK2 for 10 min at ambient temperature. The final DMSO concentration of assay mixture was 1%. […] The reaction was stopped by adding 50 mM EDTA.
(§5) The percent inhibition was calculated by the following formula:
(§6) [formula] • wherein • Conversion %_max=the conversion rate in the positive well without addition of compound • Conversion %_sample=the conversion rate of test compounds • Conversion %_min=the conversion rate in the well without addition of enzyme
(§7) The dose-response (percent inhibition) curve was plotted and IC50 values were determined by GraphPad software.

[6] = target: T5, JAK1 (Homo sapiens, UniProt P23458); assay: JAK1 kinase activity, microfluidic assay (Caliper EZ Reader II); type: biochemical; conditions: JAK1 5 nM, 1 mM ATP
T5 construct: purchased Carna Biosciences
T5 sequence (P23458 whole entry): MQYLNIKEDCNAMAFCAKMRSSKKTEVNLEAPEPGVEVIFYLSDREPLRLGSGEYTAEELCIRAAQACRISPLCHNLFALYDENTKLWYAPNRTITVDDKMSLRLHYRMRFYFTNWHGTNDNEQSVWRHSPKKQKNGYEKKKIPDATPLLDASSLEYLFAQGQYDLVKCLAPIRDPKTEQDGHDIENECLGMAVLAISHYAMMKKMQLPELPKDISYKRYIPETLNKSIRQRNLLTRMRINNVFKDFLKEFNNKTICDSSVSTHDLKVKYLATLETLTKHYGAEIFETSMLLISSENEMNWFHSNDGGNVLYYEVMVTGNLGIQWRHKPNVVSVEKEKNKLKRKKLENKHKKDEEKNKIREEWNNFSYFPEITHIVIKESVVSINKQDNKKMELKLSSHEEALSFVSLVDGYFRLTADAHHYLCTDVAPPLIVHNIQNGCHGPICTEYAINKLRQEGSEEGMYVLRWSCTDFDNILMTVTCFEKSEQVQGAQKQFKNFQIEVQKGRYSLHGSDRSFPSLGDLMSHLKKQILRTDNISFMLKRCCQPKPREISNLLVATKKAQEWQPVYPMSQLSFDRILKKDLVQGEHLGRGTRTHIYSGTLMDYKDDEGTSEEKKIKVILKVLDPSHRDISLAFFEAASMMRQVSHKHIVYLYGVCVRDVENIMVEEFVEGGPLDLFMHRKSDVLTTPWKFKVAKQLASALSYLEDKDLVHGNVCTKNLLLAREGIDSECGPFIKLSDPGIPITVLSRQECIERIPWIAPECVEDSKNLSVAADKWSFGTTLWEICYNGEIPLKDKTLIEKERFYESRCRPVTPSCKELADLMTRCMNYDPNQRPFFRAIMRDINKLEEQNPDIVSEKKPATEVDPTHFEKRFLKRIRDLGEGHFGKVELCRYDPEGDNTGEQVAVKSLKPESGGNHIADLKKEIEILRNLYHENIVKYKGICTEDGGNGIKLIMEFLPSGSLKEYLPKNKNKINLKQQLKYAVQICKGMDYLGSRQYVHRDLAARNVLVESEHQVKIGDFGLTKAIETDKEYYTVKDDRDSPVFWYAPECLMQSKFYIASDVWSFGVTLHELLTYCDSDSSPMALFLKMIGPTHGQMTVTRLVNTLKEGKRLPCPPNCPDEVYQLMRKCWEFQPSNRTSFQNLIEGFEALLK
Protocol: as §2, §3, §4, §5, §6, §7

[7] = target: T6, TYK2 (Homo sapiens, UniProt P29597); assay: TYK2 kinase activity, microfluidic assay (Caliper EZ Reader II); type: biochemical; conditions: TYK2 1 nM, 1 mM ATP
T6 construct: purchased Carna Biosciences
T6 sequence (P29597 whole entry): as the sequence (P29597 whole entry, change not shown, the tested form may be a part) above
Protocol: as §2, §3, §4, §5, §6, §7

[8] = target: T7, JAK1-JH2 domain (Homo sapiens, UniProt P23458); assay: Binding activity test for JH2 domain of JAK1 (Tb-antibody/tracer FRET)
T7 construct: IC50 on JH2 domain activity (nM)
T7 sequence (P23458 583-855 limits assumed): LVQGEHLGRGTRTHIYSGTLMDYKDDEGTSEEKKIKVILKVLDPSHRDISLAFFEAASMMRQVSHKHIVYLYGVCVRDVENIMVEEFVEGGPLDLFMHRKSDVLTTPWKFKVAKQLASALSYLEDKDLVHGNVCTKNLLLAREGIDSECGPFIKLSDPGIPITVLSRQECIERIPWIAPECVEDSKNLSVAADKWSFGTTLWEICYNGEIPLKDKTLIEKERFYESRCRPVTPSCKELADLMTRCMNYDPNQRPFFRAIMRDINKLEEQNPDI
Procedure, shortened: as §1

[9] = Plasma protein binding by equilibrium dialysis; type: in vitro ADME; conditions: human plasma, equilibrium dialysis 5 hours at 37° C.; read-out: % Bound (human) (converted)
Protocol: Plasma Protein Binding by Equilibrium Dialysis
Aliquots of test compound stock solution and warfarin stock solution were spiked into plasma to give the matrix solutions with theoretical concentrations of test compound at 0.2 and 2 μM or warfarin at 2 μM. Immediately transfer 50 μL of the spiked plasma solution suspension to a 96-well plate to act as T=0 control sample. Assemble the dialysis set up following the manufacturer's instructions. Load cells with 150 μL of plasma sample and dialyzed against equal volume of dialysis buffer (PBS). The assay is performed in duplicate. Cover the unit with gas permeable lid and incubate for 5 hours at 37° C. at 100 rpm in a constant temperature shaking box. At the end of incubation, remove lid and pipette 50 μL of post-dialysis samples from both buffer and plasma solution chambers into separated 96-well plate for analysis, respectively. Add 50 μL of plasma solution to the buffer samples, and an equal volume of PBS to the collected plasma solution samples. Shake the plate at 1000 rpm for 2 minutes and add 600 μL of 50% ACN/MeOH containing an appropriate internal standard (IS) to precipitate protein and release compound. Vortex at 1000 rpm for 10 minutes. Centrifuge for 10 minutes at 4000 rpm. Then transfer 75 μL of the supernatant to new 96-well plates for analysis. Add 150 μL of distilled water to each sample and mix for analysis by LC-MS/MS.
The free rate (% Unbound), binding rate (% Bound), and recovery rate (% Recovery) of the compound are calculated as follows: […]

[10] = test system: pSTAT1; assay: Phosphorylation inhibition of STAT in human whole blood, IFN-alpha stimulated (flow cytometry); type: cell-based; conditions: 20 min; human whole blood, IFN-alpha 20 mins, CD3 cells; read-out: IC50 on pSTAT1 inhibition in h WB
Protocol: Phosphorylation Inhibition of STAT in Human PBMC and Human Whole Blood Testing:
The inhibitory potential of test articles in human PBMC and human whole blood assay was evaluated by the method of flow cytometry.
IFN-alpha will activate JAK1 and TYK2 kinase in T cells by binding to IFN receptors, and then lead to phosphorylation of STAT1 and STAT2. The phosphorylated STAT1 enter nuclear and promote transcription and expression of IFN-gamma. To evaluate the efficacy of TYK2i in T cells, freshly prepared human PBMC or freshly collected human whole blood will be stimulated with certain unit of human IFN-alpha (Universal Type I IFN(1MU), R&D, 11200-2) for 20 mins in incubator. After stimulation, fix cells with Phosflow™ Fix Buffer I (BD, 557870), and then collect fixed cells by centrifugation (500 g, 8 min). Wash cells once with pre-cooled PBS, and then permeabilize cells with cold Perm Buffer III buffer (BD, 558050) for 45 mins on ice. Collect cells by centrifugation (600 g, 8 min) and washed twice with cold PBS. Stain cells with anti-human CD3 (FITC Mouse Anti-Human CD3, BD, 555332) and anti-pSTAT1_Y701(Alexa Fluor 647 Mouse Anti-Stat1 (pY701), BD, 612597) antibodies. Detect pSTAT1 by flow cytometry (CytoFlex S) and analyze data with FlowJo and GraphPad Prism 8 software. IC50 values of test articles were determined using 4-parameter logistic equation.

[11] = dog liver microsomes, read-out: Dog LM Clint
[12] = dog liver microsomes, read-out: Dog LM T½
[13] = human liver microsomes, read-out: Human LM Clint
[14] = human liver microsomes, read-out: Human LM T½
[15] = rat liver microsomes, read-out: Rat LM Clint
[16] = rat liver microsomes, read-out: Rat LM T½

Structure (SMILES)	GI50 [1]	GI50 [2]	IC50 [3]	microsomal CLint at 1 μM [4, 11]	half-life at 1 μM [4, 12]	microsomal CLint at 1 μM [4, 13]	half-life at 1 μM [4, 14]	microsomal CLint at 1 μM [4, 15]	half-life at 1 μM [4, 16]	IC50 [5]	IC50 [6]	IC50 [7]	IC50 [8]	fraction unbound at 5 h [9]	JAK1/TYK2 selectivity ([3]; ratio JAK1-JH2 IC50 / TYK2-JH2 IC50)	IC50 [10]
CCn1ccc2c(c(Nc3cc(NC(=O)C4CC4)nnc3C(=O)NC)cn2C)c1=O [Example 23, 6-(Cyclopropanecarboxamido)-4-((5-ethyl-1-methyl-4-oxo-4,5-dihydro-1H-pyrrolo[3,2-c]pyridin-3-yl)amino)-N-methylpyridazine-3-carboxamide]	> 20000 nM	62.9 nM	1.33 nM	21.4 µL/min/mg	1.08 h	80 µL/min/mg	0.288 h	35.8 µL/min/mg	0.645 h							
CNC(=O)c1cnc2nc1Nc1cc(cc(-c3ncn(C)n3)c1OC)CN(C)Cc1cccc(c1)N2 [Example 22, 10-Methoxy-N,15-dimethyl-11-(1-methyl-1,2,4-triazol-3-yl)-2,4,8,15,23-pentazatetracyclo[15.3.1.13,7.19,13]tricosa-1(21),3(23),4,6,9,11,13(22),17,19-nonaene-6-carboxamide]		861 nM								> 5000 nM	> 5000 nM	> 5000 nM				
CNC(=O)c1cnc2nc1Nc1cc(cc(-c3ncn(C)n3)c1OC)COCc1cccc(c1)N2 [Example 33, 10-Methoxy-N-methyl-11-(1-methyl-1,2,4-triazol-3-yl)-15-oxa-2,4,8,23-tetrazatetracyclo[15.3.1.13,7.19,13]tricosa-1(21),3(23),4,6,9,11,13(22),17,19-nonaene-6-carboxamide]		499 nM		14.5 µL/min/mg	3.97 h	26.2 µL/min/mg	2.2 h	21.8 µL/min/mg	2.65 h	> 5000 nM	> 5000 nM	> 5000 nM				
CNC(=O)c1nnc(NC(=O)C2CC2)cc1Nc1csc2ccn(C)c(=O)c12 [Example 27, 6-(Cyclopropanecarboxamido)-N-methyl-4-((5-methyl-4-oxo-4,5-dihydrothieno[3,2-c]pyridin-3-yl)amino)pyridazine-3-carboxamide]	> 20000 nM	50.9 nM	0.48 nM							> 5000 nM	> 5000 nM	> 5000 nM				
CCn1ccc2scc(Nc3cc(NC(=O)C4CC4)ncc3C(=O)NC)c2c1=O [Example 17, 6-(Cyclopropanecarboxamido)-4-((5-ethyl-4-oxo-4,5-dihydrothieno[3,2-c]pyridin-3-yl)amino)-N-methylnicotinamide]	> 10000 nM	114 nM	0.202 nM	47.1 µL/min/mg	1.23 h	128 µL/min/mg	0.451 h	209 µL/min/mg	0.276 h	> 5000 nM	> 5000 nM	> 5000 nM				
[2H]C([2H])([2H])NC(=O)c1cnc(Nc2cccc(C#N)n2)nc1Nc1cccc(-c2ncn(C)n2)c1OC [Example 21, 2-[(6-Cyano-2-pyridyl)amino]-4-[2-methoxy-3-(1-methyl-1,2,4-triazol-3-yl)anilino]-N-(trideuteriomethyl)pyrimidine-5-carboxamide]		77.5 nM		26.8 µL/min/mg	0.861 h	6.42 µL/min/mg	3.6 h	7.4 µL/min/mg	3.12 h			> 5000 nM				
CNC(=O)c1nnc(NC(=O)C2CC2)cc1Nc1cccc2ccn(C)c(=O)c12 [Example 24, 6-(Cyclopropanecarboxamido)-N-methyl-4-((2-methyl-1-oxo-1,2-dihydroisoquinolin-8-yl)amino)pyridazine-3-carboxamide]		1390 nM										> 5000 nM				
CCn1ncc2ccc(Nc3cc(NC(=O)C4CC4)ncc3C(=O)NC)c(OC)c21 [Example 228, 6-(Cyclopropanecarboxamido)-4-((1-ethyl-7-methoxy-1H-indazol-6-yl)amino)-N-methylnicotinamide]		29.3 nM	0.288 nM										6.48 nM	0.04	22.5	245 nM
CCN1CCc2scc(Nc3cc(NC(=O)C4CC4)ncc3C(=O)NC)c2C1=O [Example 39, 6-(Cyclopropanecarboxamido)-4-((5-ethyl-4-oxo-4,5,6,7-tetrahydrothieno [3,2-c]pyridin-3-yl)amino)-N-methyl-nicotinamide]		88.1 nM								> 5000 nM	> 5000 nM	> 5000 nM				
